In patent US20210379063A1, “ORAL AMINODIHYDROPHTHALAZINEDIONE COMPOSITIONS AND THEIR USE IN THE TREATMENT OF NON-VIRAL HEPATITIS” (Immunopharma Plus D.O.O., priority 2018, published 2021):
Entries after “also recorded” stand apart in the source; their conditions may differ. Like-named read-outs stand apart in the source and are kept apart here. Blank lines part the entries; values can stand above or below the compound they belong to.

Tests used:
in vitro = details: pig, pH 7.4
Experimental: (§1) The intestine was prepared so the mucous side will be facing the donor compartment.

[1] = test system: porcine large intestine (colon); test: in vitro; details: pig, 10 mM, pH 7.4
Experimental: as §1

porcine stomach (cardia) = details: for concentration in receptor compartment, Propranolol stomach, AVG / concentration in receptor compartment, Propranolol stomach: 10 mM donor solution; for concentration in receptor compartment, Propranolol stomach: single chambers
[2] = cited from earlier work
PHMG poisoning = test: Acute hepatitis caused by alcohol substitute PHMG in rats; details: single intraperitoneal injection, 50 mg/100 g
Experimental: The experiment was carried out on 25 male white outbred rats weighing 200-300 g, in accordance with the recommendations of the international ethics committees on the humane treatment of laboratory animals (EU Council Directive 86/609 EEC dated Nov. 24, 1986). To create an experimental model, an aqueous solution of PHMG was used, which was administered intraperitoneally at a dose of 50 mg/100 g.

Experimental for porcine small intestine: Porcine Small Intestinal (SI) Permeability Procedure • Full thickness pig small intestinal delivered to Solubest on the day of the experiment. • Experiments were carried out on 6 slices 2 cm*2 cm with full thickness pig small intestinal sample • The intestinal was prepared so brush border side is facing the donor compartment. • According to Solubest protocol the excess mucus and connective tissue were removed • The receiver compartment contains 0.01M Phosphate Buffer pH 7.4 (PBS). • Receiver's samples were withdrawn at 5 time points (30 min, 60 min, 120 min, 4 hours and 6 hours). • Water pump was set to temp 38±1° C. in order to keep fixed temp in receptor department at 37±1° C.

- permeability through small intestine tissue, in words (porcine small intestine): well adsorbed
- concentration in receptor compartment, small intestine, AVG (porcine small intestine; 10 mM donor solution, 0 min): 0 ng/mL
- concentration in receptor compartment, small intestine (porcine small intestine; 10 mM donor solution, 0 min, single chambers): 0 ng/mL
- concentration in receptor compartment, small intestine, AVG (porcine small intestine; 10 mM donor solution, 30 min): 1000 ng/mL
- concentration in receptor compartment, small intestine, AVG (porcine small intestine; 10 mM donor solution, 60 min): 5000 ng/mL
- concentration in receptor compartment, small intestine, AVG (porcine small intestine; 10 mM donor solution, 120 min): 13000 ng/mL
- concentration in receptor compartment, small intestine, AVG (porcine small intestine; 10 mM donor solution, 240 min): 33000 ng/mL
- concentration in receptor compartment, small intestine, AVG (porcine small intestine; 10 mM donor solution, 360 min): 55000 ng/mL
- permeability through small intestine tissue, in words (porcine small intestine; listed as propranolol): permeates well
- recovery at 0 min, 10 mM (in vitro): 0%
- recovery at 30 min, 10 mM (in vitro): 0.16%
- recovery at 60 min, 10 mM (in vitro): 0.4%
- recovery at 120 min, 10 mM (in vitro): 1.04%
- recovery at 240 min, 10 mM (in vitro): 2.36%
- recovery at 360 min, 10 mM (in vitro): 3.43%
- recovery at 720 min, 10 mM (in vitro): 6.47%
- concentration in receptor comp, large intestine, AVG ([1]; 0 min): 0 ng/mL
- concentration in receptor compartment, large intestine ([1]; 0 min): 0 ng/mL
- mg in receptor comp ([1]; 0 min): 0.000 mg
- concentration in receptor comp, large intestine, AVG ([1]; 30 min): 2000 ng/mL
- mg in receptor comp ([1]; 30 min): 0.010 mg
- concentration in receptor comp, large intestine, AVG ([1]; 60 min): 5000 ng/mL
- mg in receptor comp ([1]; 60 min): 0.026 mg
- concentration in receptor comp, large intestine, AVG ([1]; 120 min): 14000 ng/mL
- mg in receptor comp ([1]; 120 min): 0.068 mg
- concentration in receptor comp, large intestine, AVG ([1]; 240 min): 31000 ng/mL
- mg in receptor comp ([1]; 240 min): 0.154 mg
- concentration in receptor comp, large intestine, AVG ([1]; 360 min): 45000 ng/mL
- mg in receptor comp ([1]; 360 min): 0.223 mg
- concentration in receptor comp, large intestine, AVG ([1]; 720 min): 84000 ng/mL
- mg in receptor comp ([1]; 720 min): 0.421 mg
- concentration in receptor compartment, Propranolol stomach, AVG (porcine stomach (cardia); 0 min): 0 ng/mL
- concentration in receptor compartment, Propranolol stomach (porcine stomach (cardia); 0 min): 0 ng/mL
- concentration in receptor compartment, Propranolol stomach, AVG (porcine stomach (cardia); 30 min): 0 ng/mL
- concentration in receptor compartment, Propranolol stomach (porcine stomach (cardia); 30 min): 0 ng/mL
- concentration in receptor compartment, Propranolol stomach, AVG (porcine stomach (cardia); 60 min): 0 ng/mL
- concentration in receptor compartment, Propranolol stomach (porcine stomach (cardia); 60 min): 0 ng/mL
- concentration in receptor compartment, Propranolol stomach, AVG (porcine stomach (cardia); 120 min): 0 ng/mL
- concentration in receptor compartment, Propranolol stomach (porcine stomach (cardia); 120 min): 0 ng/mL
- concentration in receptor compartment, Propranolol stomach, AVG (porcine stomach (cardia); 240 min): 0 ng/mL
- concentration in receptor compartment, Propranolol stomach (porcine stomach (cardia); 240 min): 0 ng/mL
- concentration in receptor compartment, Propranolol stomach, AVG (porcine stomach (cardia); 420 min): 0 ng/mL
- concentration in receptor compartment, Propranolol stomach (porcine stomach (cardia); 420 min): 0 ng/mL
Compound: CC(C)NCC(O)COc1cccc2ccccc12 (centres unmarked) [Propranolol]
- permeation through stomach tissue, in words (porcine stomach (cardia)): almost no permeation; also recorded: poorly penetrate through the stomach tissue
- time of peak plasma levels ([2]; after ingestion): 1 to 3 h
- BSC classification ([2]; high solubility, high permeability): class 1

Compound: polyhexamethyleneguanidine [PHMG]
- mortality (PHMG poisoning): about 70%
